Measurements taken from US12419900B2, “Induction of synthetic lethality with epigenetic therapy” (The Johns Hopkins University, priority 2017, dated 2025).

How the values were obtained:
A549 lung cancer cells = test: Alamar blue cell viability and growth, alisertib x decitabine dose matrix; type: cell-based; conditions: for Percent Growth Inhibition: Alisertib 0 nM
Protocol: (§1) DU145 prostate cancer cells and A549 lung cancer cells were treated with varying concentrations (0 nM, 10 nM, 50 nM, and 100 nM) of alisertib in addition to varying concentrations of decitabine (0 nM, 50 nM, 100 nM, and 250 nM). Representative data are shown in FIGS. 2A and 2B, as well as the Tables below. […] Formal synergy analyses were performed using the Bliss independence score (where values greater than zero indicate greater than additive effect). […] The graph of FIG. 2A is a growth curve of the DU145 prostate cancer cells for the agents alone (decitabine and alisertib separately), a vehicle control, and the agents in combination (decitabine and alisertib together). […] Likewise, the graph of FIG. 2B is a growth curve of the A549 lung cancer cells for the agents alone (decitabine and alisertib separately), a vehicle control, and the agents in combination (decitabine and alisertib together). […] The synergy analysis of the combination of decitabine and alisertib was evaluated in a series of 18 cancer cell lines (9 prostate, 1 ovarian, 1 lung, 2 colon, 2 central nervous system, and 3 breast cancer cell lines) and 2 non-cancer cell models.

[1] = In vivo toxicity profile of treated mice; conditions: FIGS. 7D and 7E
From the text: The toxicity profile of the treated mice was observed, and the animals were weighed over the course of the experiment.

DU145 xenograft tumor = test: In vivo xenograft study of DU145, decitabine and alisertib; set-up: species or system nude mice; conditions: for tumor growth (FIG. 5A): decitabine alone, alisertib high and low dose alone, combinations concurrent or primed, low and high dose alisertib; for xenograft tissue growth or survival compared to the vehicle control: single agent therapy at the doses tested (decitabine 0.75 mg/kg; alisertib 15 or 25 mg/kg)
Protocol: Using in vivo xenograft studies of the DU145 prostate cancer cell line, the effect was explored of the treatment of two dose levels of alisertib alone or in combination with decitabine using two different treatment time schedules over a period of seven weeks. First, nude mice were inoculated with DU145 cells that were allowed to incubate for 10-12 days to establish xenograft tumor. The inoculated mice were then treated concomitantly with both a high dose and a low dose of alisertib and decitabine in the first two weeks or primed with decitabine alone for two weeks followed by alisertib alone in the first cycle. The dose of decitabine was held constant at 0.75 mg/kg and given with either low-dose (15 mg/kg) or high-dose (25 mg/kg) alisertib, as indicated in FIG. 4. The cumulative number of doses of decitabine and alisertib was the same in all combination treatment arms in both schedules.

Satellite 2 sequences = test: Bisulfite genomic sequencing of repetitive elements; type: cell-based; conditions: DU145; vehicle control 45.09%
primary hepatocytes = test: Cell viability and growth, alisertib x decitabine dose matrix; type: cell-based; conditions: for Percent Growth Inhibition: Alisertib 0 nM
Protocol: The synergy analysis of the combination of decitabine and alisertib was evaluated in a series of 18 cancer cell lines (9 prostate, 1 ovarian, 1 lung, 2 colon, 2 central nervous system, and 3 breast cancer cell lines) and 2 non-cancer cell models. A final cumulative Bliss synergy score was calculated based on the sum of the synergy values from each of the 16 combinations of 0 nM, 10 nM, 50 nM, and 100 nM of alsertib together with 0 nM, 50 nM, 100 nM, and 250 nM of decitabine.

DNMT3B = test: Western Blot in DU145 cells; type: cell-based; conditions: 100 nM decitabine, 100 nM alisertib
Protocol: DNA methyltransferase enzymes comprise a family of enzymes including DNMT1, DNMT3A, and DNMT3B. […] In this study, Western Blot analyses for DNMT3B were performed on DU145 cell tissue sample treated with vehicle control; 100 nM alisertib alone; 100 nM decitabine alone; and 100 nM of decitabine in combination with 100 nM of alisertib.

[2] = system: DU145 prostate cancer cells; test: Alamar blue cell viability and growth, alisertib x decitabine dose matrix; type: cell-based; conditions: for Percent Growth Inhibition: Alisertib 0 nM
Protocol: as §1, with “below. […] In each panel, a dose response of each drug alone and in combination was used in Alamar blue cell viability assays.” for “below.”

[3] = system: residual xenograft tumors; test: KI-67 and Caspase 3A staining of residual xenograft tumors; type: in vivo, nude mice; conditions: decitabine pre-treatment experiment
From the text: The proliferative index and apoptotic fraction in residual xenograft tumors from the decitabine pre-treatment experiment was then examined. Sample cells from each of the vehicle control, decitabine pre-treatment alone, alisertib alone, and decitabine pretreatment in combination with alisertib were stained with either KI-67 or Caspase 3A.

DNMT1 = test: Protein levels in DU145 cells (data not shown); type: cell-based
DNMT3A = test: Protein levels in DU145 cells (data not shown); type: cell-based
Aurora Kinase A (AURKA) = test: Western Blot in DU145 cells; type: cell-based; conditions: 100 nM decitabine, 100 nM alisertib
Protocol: Western Blot analyses for AURKA were performed on DU145 cell tissue sample treated with vehicle control; 100 nM alisertib alone; 100 nM decitabine alone; and 100 nM of decitabine in combination with 100 nM of alisertib.

COc1cc(Nc2ncc3c(n2)-c2ccc(Cl)cc2C(c2c(F)cccc2OC)=NC3)ccc1C(=O)O [alisertib]
inhibition at 0.01 µM (A549 lung cancer cells; Homo sapiens, DAC 0 nM, Alisertib 10 nM, read-out: Percent Growth Inhibition): 0% | inhibition at 0.05 µM (A549 lung cancer cells; Homo sapiens, DAC 0 nM, Alisertib 50 nM, read-out: Percent Growth Inhibition): 0% | inhibition at 0.1 µM (A549 lung cancer cells; Homo sapiens, DAC 0 nM, Alisertib 100 nM, read-out: Percent Growth Inhibition): 1% | AST and ALT (liver function) [1]: elevated | Fold Change in Tumor Size, Mean (DU145 xenograft tumor; Alisertib high dose 25 mg/kg alone, week 0): 1 | Fold Change in Tumor Size, Mean (DU145 xenograft tumor; Alisertib high dose 25 mg/kg alone, week 1): 1.69 | Fold Change in Tumor Size, Mean (DU145 xenograft tumor; Alisertib high dose 25 mg/kg alone, week 2): 2.35 | Fold Change in Tumor Size, Mean (DU145 xenograft tumor; Alisertib high dose 25 mg/kg alone, week 3): 3.16 | Fold Change in Tumor Size, Mean (DU145 xenograft tumor; Alisertib high dose 25 mg/kg alone, week 4): 5.08 | Fold Change in Tumor Size, Mean (DU145 xenograft tumor; Alisertib high dose 25 mg/kg alone, week 5): 6.47 | Fold Change in Tumor Size, Mean (DU145 xenograft tumor; Alisertib high dose 25 mg/kg alone, week 6): 8.46 | Fold Change in Tumor Size, Mean (DU145 xenograft tumor; Alisertib high dose 25 mg/kg alone, week 7): 9.98 | Fold Change in Tumor Size, Mean (DU145 xenograft tumor; Alisertib low dose 15 mg/kg alone, week 0): 1 | Fold Change in Tumor Size, Mean (DU145 xenograft tumor; Alisertib low dose 15 mg/kg alone, week 1): 1.31 | Fold Change in Tumor Size, Mean (DU145 xenograft tumor; Alisertib low dose 15 mg/kg alone, week 2): 2.25 | Fold Change in Tumor Size, Mean (DU145 xenograft tumor; Alisertib low dose 15 mg/kg alone, week 3): 2.96 | Fold Change in Tumor Size, Mean (DU145 xenograft tumor; Alisertib low dose 15 mg/kg alone, week 4): 4.33 | Fold Change in Tumor Size, Mean (DU145 xenograft tumor; Alisertib low dose 15 mg/kg alone, week 5): 5.12 | Fold Change in Tumor Size, Mean (DU145 xenograft tumor; Alisertib low dose 15 mg/kg alone, week 6): 6.02 | Fold Change in Tumor Size, Mean (DU145 xenograft tumor; Alisertib low dose 15 mg/kg alone, week 7): 7.54 | tumor growth (FIG. 5A) (DU145 xenograft tumor): continued to grow at a significant rate | xenograft tissue growth or survival compared to the vehicle control (DU145 xenograft tumor): did not significantly alter | percent of CpG Satellite 2 methylation (Satellite 2 sequences): 40.6% | inhibition at 0.01 µM (primary hepatocytes; Hepatocyte, DAC 0 nM, Alisertib 10 nM, read-out: Percent Growth Inhibition): 10% | inhibition at 0.05 µM (primary hepatocytes; Hepatocyte, DAC 0 nM, Alisertib 50 nM, read-out: Percent Growth Inhibition): 21% | inhibition at 0.1 µM (primary hepatocytes; Hepatocyte, DAC 0 nM, Alisertib 100 nM, read-out: Percent Growth Inhibition): 15% | DNMT3B levels (DNMT3B): significantly reduce | growth inhibition of DU-145 cells in combination with decitabine ([2]; Aurora kinase inhibitor + decitabine): synergistic growth inhibition | inhibition at 0.01 µM ([2]; Homo sapiens, DU-145, DU145, DAC 0 nM, Alisertib 10 nM, read-out: Percent Growth Inhibition): 0% | inhibition at 0.05 µM ([2]; Homo sapiens, DU-145, DU145, DAC 0 nM, Alisertib 50 nM, read-out: Percent Growth Inhibition): 0% | inhibition at 0.1 µM ([2]; Homo sapiens, DU-145, DU145, DAC 0 nM, Alisertib 100 nM, read-out: Percent Growth Inhibition): 2% | Caspase 3A staining (apoptosis) [3]: almost no alteration | KI-67 staining (cell proliferation) [3]: almost no alteration | DNMT1 levels (DNMT1): did not significantly affect | DNMT3A levels (DNMT3A): did not significantly affect

Nc1ncn([C@H]2C[C@H](O)[C@@H](CO)O2)c(=O)n1 [decitabine, 5-aza-2′-deoxycytidine]
Percent Growth Inhibition (A549 lung cancer cells; DAC 50 nM): 0.03 | Percent Growth Inhibition (A549 lung cancer cells; DAC 100 nM): 0 | Percent Growth Inhibition (A549 lung cancer cells; DAC 250 nM): 0.14 | Fold Change in Tumor Size, Mean (DU145 xenograft tumor; DAC 0.75 mg/kg alone, week 0): 1 | Fold Change in Tumor Size, Mean (DU145 xenograft tumor; DAC 0.75 mg/kg alone, week 1): 1.31 | Fold Change in Tumor Size, Mean (DU145 xenograft tumor; DAC 0.75 mg/kg alone, week 2): 1.90 | Fold Change in Tumor Size, Mean (DU145 xenograft tumor; DAC 0.75 mg/kg alone, week 3): 2.68 | Fold Change in Tumor Size, Mean (DU145 xenograft tumor; DAC 0.75 mg/kg alone, week 4): 3.81 | Fold Change in Tumor Size, Mean (DU145 xenograft tumor; DAC 0.75 mg/kg alone, week 5): 4.60 | Fold Change in Tumor Size, Mean (DU145 xenograft tumor; DAC 0.75 mg/kg alone, week 6): 5.10 | Fold Change in Tumor Size, Mean (DU145 xenograft tumor; DAC 0.75 mg/kg alone, week 7): 5.49 | tumor growth (FIG. 5A) (DU145 xenograft tumor): continued to grow at a significant rate | xenograft tissue growth or survival compared to the vehicle control (DU145 xenograft tumor): did not significantly alter | percent of CpG Satellite 2 methylation (Satellite 2 sequences): 33.33% | Percent Growth Inhibition (primary hepatocytes; DAC 50 nM): 0.16 | Percent Growth Inhibition (primary hepatocytes; DAC 100 nM): 0.30 | Percent Growth Inhibition (primary hepatocytes; DAC 250 nM): 0.29 | DNMT3B levels (DNMT3B): did not significantly alter | Percent Growth Inhibition ([2]; DU145, DAC 50 nM): 0.04 | Percent Growth Inhibition ([2]; DU145, DAC 100 nM): 0.08 | Percent Growth Inhibition ([2]; DU145, DAC 250 nM): 0.77 | cell survival in tissue culture ([2]; DU145, low dose decitabine 100 nM): most of the cells survived | Caspase 3A staining (apoptosis) [3]: almost no alteration | KI-67 staining (cell proliferation) [3]: almost no alteration | DNMT1 levels (DNMT1): significantly reduced | AURKA protein levels (Aurora Kinase A (AURKA)): significantly induce
